Measurements from paper PMC5218480 (PLoS ONE, 2017).

Tested on: MV-4-11 cells
Assay: Gene expression microarray analysis (Affymetrix PrimeView) and GSEA
Assay type: cell-based, human
Set-up: RFU PODN (11730768_x_at) / Fold change /veh PODN (11730768_x_at) / RFU LINC00158 (11744669_a_at) / Fold change /veh LINC00158 (11744669_a_at) / RFU DUSP10 (11751237_a_at) / Fold change /veh DUSP10 (11751237_a_at) / RFU ID3 (11757404_x_at) / Fold change /veh ID3 (11757404_x_at) / RFU PLEKHG5 (11737974_s_at) / Fold change /veh PLEKHG5 (11737974_s_at) / RFU LRRC4B (11730491_at) / Fold change /veh LRRC4B (11730491_at) / RFU GIMAP4 (11747438_a_at) / Fold change /veh GIMAP4 (11747438_a_at) / RFU KRT8 (11758183_x_at) / Fold change /veh KRT8 (11758183_x_at) / RFU CNN1 (11734310_a_at) / Fold change /veh CNN1 (11734310_a_at) / RFU VPS37D (11726825_at) / Fold change /veh VPS37D (11726825_at) / RFU C10orf10 (11716522_x_at) / Fold change /veh C10orf10 (11716522_x_at) / RFU KIR2DL2 /// KIR2DL4 /// KIR2DL5A /// KIR2DL5B /// KIR2DS1 /// KIR2DS2 /// KIR2DS3 /// KIR2DS4 /// KIR3DL3 /// KIR3DL3 /// KIR3DS1 (11738374_at) / Fold change /veh KIR2DL2 /// KIR2DL4 /// KIR2DL5A /// KIR2DL5B /// KIR2DS1 /// KIR2DS2 /// KIR2DS3 /// KIR2DS4 /// KIR3DL3 /// KIR3DL3 /// KIR3DS1 (11738374_at) / RFU C1QL1 (11718748_at) / Fold change /veh C1QL1 (11718748_at) / RFU TMPRSS4 (11747572_a_at) / Fold change /veh TMPRSS4 (11747572_a_at) / RFU HAMP (11756126_x_at) / Fold change /veh HAMP (11756126_x_at) / RFU RNFT2 (11725882_a_at) / Fold change /veh RNFT2 (11725882_a_at) / RFU NR4A2 (11747474_a_at) / Fold change /veh NR4A2 (11747474_a_at) / RFU ABCC12 (11746883_a_at) / Fold change /veh ABCC12 (11746883_a_at) / RFU TMEM136 (11760407_x_at) / Fold change /veh TMEM136 (11760407_x_at) / RFU CLDN22 /// WWC2 (11732394_at) / Fold change /veh CLDN22 /// WWC2 (11732394_at) / RFU HLA-DPB1 (11760878_x_at) / Fold change /veh HLA-DPB1 (11760878_x_at) / RFU SPINT1 (11716480_a_at) / Fold change /veh SPINT1 (11716480_a_at) / RFU GAP43 (11754022_s_at) / Fold change /veh GAP43 (11754022_s_at) / RFU A4GNT (11735810_at) / Fold change /veh A4GNT (11735810_at) / RFU PRB3 (11715151_x_at) / Fold change /veh PRB3 (11715151_x_at) / RFU TUBB4B (11761932_at) / Fold change /veh TUBB4B (11761932_at) / RFU CAPN14 (11732068_a_at) / Fold change /veh CAPN14 (11732068_a_at) / RFU TMCC2 (11721928_a_at) / Fold change /veh TMCC2 (11721928_a_at) / RFU IRGQ (11745062_a_at) / Fold change /veh IRGQ (11745062_a_at) / RFU FAM174B (11720279_a_at) / Fold change /veh FAM174B (11720279_a_at) / RFU TMPRSS4 (11748680_a_at) / Fold change /veh TMPRSS4 (11748680_a_at) / RFU FAM212B (11763350_a_at) / Fold change /veh FAM212B (11763350_a_at) / RFU PLEKHG5 (11743358_a_at) / Fold change /veh PLEKHG5 (11743358_a_at) / RFU ZSCAN30 (11745921_a_at) / Fold change /veh ZSCAN30 (11745921_a_at) / RFU CMKLR1 (11741424_a_at) / Fold change /veh CMKLR1 (11741424_a_at) / RFU LOC101060620 /// MAPK8IP1 (11723275_at) / Fold change /veh LOC101060620 /// MAPK8IP1 (11723275_at) / RFU SPTSSB (11747773_x_at) / Fold change /veh SPTSSB (11747773_x_at) / RFU PRSS12 (11739890_at) / Fold change /veh PRSS12 (11739890_at) / RFU BIN1 (11741810_x_at) / Fold change /veh BIN1 (11741810_x_at) / RFU WNT11 (11732464_a_at) / Fold change /veh WNT11 (11732464_a_at) / RFU C10orf10 (11716521_a_at) / Fold change /veh C10orf10 (11716521_a_at) / RFU C5orf56 (11738089_at) / Fold change /veh C5orf56 (11738089_at) / RFU CYB561 (11721691_x_at) / Fold change /veh CYB561 (11721691_x_at) / RFU ANKRD19P (11752326_a_at) / Fold change /veh ANKRD19P (11752326_a_at) / RFU OR2T12 /// OR2T33 /// OR2T8 (11738714_s_at) / Fold change /veh OR2T12 /// OR2T33 /// OR2T8 (11738714_s_at) / RFU VCAN (11748164_a_at) / Fold change /veh VCAN (11748164_a_at) / RFU JSRP1 (11732532_at) / Fold change /veh JSRP1 (11732532_at) / RFU KRTAP10-11 (11738290_x_at) / Fold change /veh KRTAP10-11 (11738290_x_at) / RFU MYO3A (11730013_a_at) / Fold change /veh MYO3A (11730013_a_at) / RFU EBF3 (11725865_a_at) / Fold change /veh EBF3 (11725865_a_at) / RFU CAMK2N1 (11719241_x_at) / Fold change /veh CAMK2N1 (11719241_x_at) / RFU C5orf56 (11738088_a_at) / Fold change /veh C5orf56 (11738088_a_at) / RFU OLFML3 (11715873_a_at) / Fold change /veh OLFML3 (11715873_a_at) / RFU LOC100653217 /// NTM (11731650_a_at) / Fold change /veh LOC100653217 /// NTM (11731650_a_at) / RFU MAPK11 (11762145_a_at) / Fold change /veh MAPK11 (11762145_a_at) / RFU FIZ1 (11724087_x_at) / Fold change /veh FIZ1 (11724087_x_at) / RFU OASL (11726364_x_at) / Fold change /veh OASL (11726364_x_at) / RFU SOX15 (11748057_x_at) / Fold change /veh SOX15 (11748057_x_at) / RFU CD79A (11719716_a_at) / Fold change /veh CD79A (11719716_a_at) / RFU HIST1H1D (11736915_at) / Fold change /veh HIST1H1D (11736915_at) / RFU CASKIN2 (11723855_a_at) / Fold change /veh CASKIN2 (11723855_a_at) / RFU LOC730098 (11760151_x_at) / Fold change /veh LOC730098 (11760151_x_at) / RFU OR4N2 (11742367_at) / Fold change /veh OR4N2 (11742367_at) / RFU PRRT2 (11749266_a_at) / Fold change /veh PRRT2 (11749266_a_at) / RFU SNX32 (11753110_a_at) / Fold change /veh SNX32 (11753110_a_at) / RFU CDHR5 (11726645_a_at) / Fold change /veh CDHR5 (11726645_a_at) / RFU RCAN1 (11760418_a_at) / Fold change /veh RCAN1 (11760418_a_at) / RFU FAM167A (11723789_a_at) / Fold change /veh FAM167A (11723789_a_at) / RFU FAM26E (11764081_at) / Fold change /veh FAM26E (11764081_at) / RFU ISYNA1 (11749810_s_at) / Fold change /veh ISYNA1 (11749810_s_at) / RFU ACY1 (11761880_at) / Fold change /veh ACY1 (11761880_at) / RFU 11764098_at / Fold change /veh 11764098_at / RFU SAMD14 (11745864_x_at) / Fold change /veh SAMD14 (11745864_x_at) / RFU NPB (11741838_a_at) / Fold change /veh NPB (11741838_a_at) / RFU TMPRSS6 (11731388_a_at) / Fold change /veh TMPRSS6 (11731388_a_at) / RFU KRTAP10-2 (11738614_at) / Fold change /veh KRTAP10-2 (11738614_at) / RFU ARHGAP8 /// PRR5-ARHGAP8 (11727945_x_at) / Fold change /veh ARHGAP8 /// PRR5-ARHGAP8 (11727945_x_at) / RFU KRTAP5-7 /// NADSYN1 (11734609_at) / Fold change /veh KRTAP5-7 /// NADSYN1 (11734609_at) / RFU RASL12 (11751679_a_at) / Fold change /veh RASL12 (11751679_a_at) / RFU CDKN2B (11736163_a_at) / Fold change /veh CDKN2B (11736163_a_at) / RFU PRF1 (11729649_at) / Fold change /veh PRF1 (11729649_at) / RFU, ZNF638 /// ZNF638-IT1 / Fold change vs veh, ZNF638 /// ZNF638-IT1 / RFU, PANK3 / Fold change vs veh, PANK3 / RFU, SH3YL1 / Fold change vs veh, SH3YL1 / RFU, ZEB2 / Fold change vs veh, ZEB2 / RFU, NRIP1 / Fold change vs veh, NRIP1 / RFU, PTTG1IP / Fold change vs veh, PTTG1IP / RFU, CAPN2 / Fold change vs veh, CAPN2 / RFU, MED14 / Fold change vs veh, MED14 / RFU, SNORA58 / Fold change vs veh, SNORA58 / RFU, C1orf63 / Fold change vs veh, C1orf63 / RFU, LRRFIP1 / Fold change vs veh, LRRFIP1 / RFU, NDUFAF7 / Fold change vs veh, NDUFAF7 / RFU, SLC12A2 / Fold change vs veh, SLC12A2 / RFU, IBTK / Fold change vs veh, IBTK / RFU, ESF1 / Fold change vs veh, ESF1 / Fold change vs veh, TMEM50B / RFU, TAOK1 / Fold change vs veh, TAOK1 / RFU, ACBD3 / Fold change vs veh, ACBD3 / RFU, TMA16 / Fold change vs veh, TMA16 / RFU, RWDD3 / Fold change vs veh, RWDD3 / RFU, BCAT1 / Fold change vs veh, BCAT1 / RFU, EDEM3 / Fold change vs veh, EDEM3 / RFU, TMEM33 / Fold change vs veh, TMEM33 / RFU, WDR75 / Fold change vs veh, WDR75 / RFU, AHCTF1 / Fold change vs veh, AHCTF1 / RFU, TFRC / Fold change vs veh, TFRC / RFU, ZDHHC17 / Fold change vs veh, ZDHHC17 / RFU, NOM1 / Fold change vs veh, NOM1 / RFU, ARL8B / Fold change vs veh, ARL8B / RFU, ZBTB11 / Fold change vs veh, ZBTB11 / RFU, TAMM41 / Fold change vs veh, TAMM41 / RFU, KIAA1704 /// LOC100996395 / Fold change vs veh, KIAA1704 /// LOC100996395 / RFU, ING1 / Fold change vs veh, ING1 / RFU, TRMT61B / Fold change vs veh, TRMT61B / RFU, FUBP3 / Fold change vs veh, FUBP3 / RFU, TP53 / Fold change vs veh, TP53 / RFU, TNKS2 / Fold change vs veh, TNKS2 / RFU, ZFP14 / Fold change vs veh, ZFP14 / RFU, ACTR2 / Fold change vs veh, ACTR2 / RFU, PPP3R1 / Fold change vs veh, PPP3R1 / RFU, PIK3R1 / Fold change vs veh, PIK3R1 / RFU, HNRNPA1 / Fold change vs veh, HNRNPA1 / RFU, RNF170 / Fold change vs veh, RNF170 / RFU, ZNF28 / Fold change vs veh, ZNF28 / RFU, RNGTT / Fold change vs veh, RNGTT / RFU, OGT / Fold change vs veh, OGT / RFU, BRD1 / Fold change vs veh, BRD1 / RFU, MARS / Fold change vs veh, MARS / RFU, ZNF655 / Fold change vs veh, ZNF655 / RFU, FAHD1 / Fold change vs veh, FAHD1 / RFU, BDP1 / Fold change vs veh, BDP1 / RFU, LRRCC1 / Fold change vs veh, LRRCC1 / RFU, ARID1A / Fold change vs veh, ARID1A / RFU, ZNF146 / Fold change vs veh, ZNF146 / RFU, ZNF330 / Fold change vs veh, ZNF330 / RFU, GPN3 / Fold change vs veh, GPN3 / RFU, C9orf123 / Fold change vs veh, C9orf123 / RFU, N4BP2L2 / Fold change vs veh, N4BP2L2 / RFU, ARFIP1 / Fold change vs veh, ARFIP1 / RFU, FAM179B / Fold change vs veh, FAM179B / RFU, BCL10 / Fold change vs veh, BCL10 / RFU, UHRF1BP1L / Fold change vs veh, UHRF1BP1L / RFU, BET1 / Fold change vs veh, BET1 / RFU, CNOT2 / Fold change vs veh, CNOT2 / RFU, ZNF268 / Fold change vs veh, ZNF268 / Fold change vs veh, ZNF507 / RFU, DGCR2 / Fold change vs veh, DGCR2 / RFU, WDSUB1 / Fold change vs veh, WDSUB1 / Fold change vs veh, HSP90B1 /// MIR3652 / RFU, ADSS / Fold change vs veh, ADSS / RFU, GK / Fold change vs veh, GK / RFU, ZNF148 / Fold change vs veh, ZNF148 / RFU, TAF9 / Fold change vs veh, TAF9 / RFU, SLC1A5 / Fold change vs veh, SLC1A5 / RFU, SLMO2 / Fold change vs veh, SLMO2 / RFU, ABCC4 / Fold change vs veh, ABCC4 / RFU, LOC101060439 /// RAP1B / Fold change vs veh, LOC101060439 /// RAP1B / RFU, RFX7 / Fold change vs veh, RFX7 / RFU, GTPBP10 / Fold change vs veh, GTPBP10 / RFU, CNEP1R1 / Fold change vs veh, CNEP1R1 / RFU, BIVM-ERCC5 /// ERCC5 / Fold change vs veh, BIVM-ERCC5 /// ERCC5 / RFU, ILF3 / Fold change vs veh, ILF3 / RFU 11762660_at / Fold change /veh 11762660_at / RFU VCAN (11757783_s_at) / Fold change /veh VCAN (11757783_s_at) / RFU DDX43 (11728927_at) / Fold change /veh DDX43 (11728927_at) / RFU KRT8 (11758188_x_at) / Fold change /veh KRT8 (11758188_x_at) / RFU NKD1 (11759106_at) / Fold change /veh NKD1 (11759106_at) / RFU SRD5A1 (11742802_a_at) / Fold change /veh SRD5A1 (11742802_a_at) / RFU TPSAB1 /// TPSB2 (11721975_s_at) / Fold change /veh TPSAB1 /// TPSB2 (11721975_s_at) / RFU GSTM3 (11746129_a_at) / Fold change /veh GSTM3 (11746129_a_at) / RFU IL23R (11737362_x_at) / Fold change /veh IL23R (11737362_x_at) / RFU TMEM51 (11727254_a_at) / Fold change /veh TMEM51 (11727254_a_at) / RFU PIWIL2 (11732686_x_at) / Fold change /veh PIWIL2 (11732686_x_at) / RFU ORM1 (11744905_x_at) / Fold change /veh ORM1 (11744905_x_at) / RFU CCDC152 (11743942_at) / Fold change /veh CCDC152 (11743942_at) / RFU ECM1 (11717891_a_at) / Fold change /veh ECM1 (11717891_a_at) / RFU IL23R (11748794_a_at) / Fold change /veh IL23R (11748794_a_at) / RFU TNFAIP8L3 (11732012_x_at) / Fold change /veh TNFAIP8L3 (11732012_x_at) / RFU MBOAT4 (11741988_at) / Fold change /veh MBOAT4 (11741988_at) / RFU 11764193_at / Fold change /veh 11764193_at / RFU TMEM53 (11763286_at) / Fold change /veh TMEM53 (11763286_at) / RFU MAGEB2 (11727129_at) / Fold change /veh MAGEB2 (11727129_at) / RFU TMEM200A (11744735_a_at) / Fold change /veh TMEM200A (11744735_a_at) / RFU CCDC152 (11751479_a_at) / Fold change /veh CCDC152 (11751479_a_at) / RFU FAM211A (11726209_a_at) / Fold change /veh FAM211A (11726209_a_at) / RFU RGS16 (11746705_a_at) / Fold change /veh RGS16 (11746705_a_at) / RFU VCAN (11755009_s_at) / Fold change /veh VCAN (11755009_s_at) / RFU RHOB (11743442_s_at) / Fold change /veh RHOB (11743442_s_at) / RFU RGS16 (11720943_a_at) / Fold change /veh RGS16 (11720943_a_at) / RFU RGS16 (11720944_at) / Fold change /veh RGS16 (11720944_at) / RFU, VPS4B / Fold change vs veh, VPS4B / RFU, CREB1 / Fold change vs veh, CREB1 / RFU, DNAJC13 / Fold change vs veh, DNAJC13 / RFU, GNAQ / Fold change vs veh, GNAQ / RFU, CDK5R1 / Fold change vs veh, CDK5R1 / RFU, ZRANB3 / Fold change vs veh, ZRANB3 / RFU, CUL4A / Fold change vs veh, CUL4A / RFU, CCNY / Fold change vs veh, CCNY / RFU, UFL1 / Fold change vs veh, UFL1 / RFU, COG3 / Fold change vs veh, COG3 / RFU, DIAPH2 / Fold change vs veh, DIAPH2 / RFU, SKA2 / Fold change vs veh, SKA2 / RFU, AFF3 / Fold change vs veh, AFF3 / RFU, LMF1 / Fold change vs veh, LMF1 / RFU, IPO11 / Fold change vs veh, IPO11 / RFU, DFFB / Fold change vs veh, DFFB / RFU, FOXP1 / Fold change vs veh, FOXP1 / RFU, CARD8 / Fold change vs veh, CARD8 / RFU, STRN3 / Fold change vs veh, STRN3 / RFU, ADK / Fold change vs veh, ADK / RFU, RASSF2 / Fold change vs veh, RASSF2 / RFU, WIPF1 / Fold change vs veh, WIPF1 / RFU, LARP1B / Fold change vs veh, LARP1B / RFU, RASA1 / Fold change vs veh, RASA1 / RFU, RB1 / Fold change vs veh, RB1 / RFU, PPFIA1 / Fold change vs veh, PPFIA1 / RFU, MAT2A / Fold change vs veh, MAT2A / RFU, CCT5 / Fold change vs veh, CCT5 / RFU, WDR92 / Fold change vs veh, WDR92 / RFU, CUX1 / Fold change vs veh, CUX1 / RFU, TTC7A / Fold change vs veh, TTC7A / RFU, TMEM135 / Fold change vs veh, TMEM135 / RFU, DEPTOR / Fold change vs veh, DEPTOR / RFU, CPM / Fold change vs veh, CPM / RFU, DNAJB6 / Fold change vs veh, DNAJB6 / RFU, CACNA2D3 / Fold change vs veh, CACNA2D3 / RFU, DTX4 / Fold change vs veh, DTX4 / RFU, TFCP2 / Fold change vs veh, TFCP2 / RFU, GMCL1 /// GMCL1P1 / Fold change vs veh, GMCL1 /// GMCL1P1 / RFU, AEBP2 / Fold change vs veh, AEBP2 / RFU, SNHG1 /// SNORD22 /// SNORD25 /// SNORD26 /// SNORD27 /// SNORD28 /// SNORD29 /// SNORD31 / Fold change vs veh, SNHG1 /// SNORD22 /// SNORD25 /// SNORD26 /// SNORD27 /// SNORD28 /// SNORD29 /// SNORD31 / Fold change (Aza/veh), C12orf56 (ProbeSet 11735607_a_at) / Fold change (ACY-1035/veh), C12orf56 (ProbeSet 11735607_a_at) / Fold change (Aza/veh), FGFR1OP (ProbeSet 11751329_s_at) / Fold change (ACY-1035/veh), FGFR1OP (ProbeSet 11751329_s_at) / Fold change (Aza/veh), VPS36 (ProbeSet 11739960_a_at) / Fold change (ACY-1035/veh), VPS36 (ProbeSet 11739960_a_at) / RFU SYPL1 (11715823_x_at) / Fold change /veh SYPL1 (11715823_x_at) / RFU IGFBP7 (11715501_s_at) / Fold change /veh IGFBP7 (11715501_s_at) / RFU REEP3 (11722064_at) / Fold change /veh REEP3 (11722064_at) / RFU IGLL1 (11728026_x_at) / Fold change /veh IGLL1 (11728026_x_at): dose or concentration left out as unconfirmed
Settings: ProbeSet 11717914_a_at; LIST B

Nc1ccc(-c2cccs2)cc1NC(=O)c1ccc2c(c1)cc(C1CC1)n2CCN1CCOCC1 [ACY-1035]
RFU, BIVM-ERCC5 /// ERCC5: 177.23 RFU
